The experiment has as its system differentiated culture of primary bronchial human cells. The experiment in a line: Barrier disruption at the air-liquid interface: epithelial barrier resistance Rc by impedance spectroscopy before and after EGTA stimulation. It is filed as cell-based. As to conditions: paired t-test. The procedure:
Impedance spectra were measured before and after EGTA stimulation either submerged or at the air-liquid interface. The extrapolated values of the equivalent resistance Rc were compared with TER values.
FIG. 17 is a bar chart of fitted resistance values, Rc, showing the disruption induced by the EGTA stimulation.
Electrical impedance spectroscopy (EIS) measurements were performed using the two electrodes configuration of an Alpha-A impedance analyser (Novocontrol Technologies, Germany). A frequency sweep was performed between 100 Hz and 100 kHz, with an applied voltage of 0.05 V(rms). Prior to the EIS measurement, the medium in the apical compartment was replaced with different volumes (200 μl, 50 μl, 20 μl, 10 μl) of fresh medium at room-temperature. Each Transwell® support was placed on top of the planar electrodes only for the duration of the measurement (≈30 s). Trans-epithelial electrical resistance (TER) measurements were performed using chopstick electrodes connected to an EVOM2 Epithelial Volt-ohm-meter (World Precision Instruments).
A custom script was developed in Matlab (© 2015 The MathWorks) to fit the complex electrical impedance data with the equivalent electric circuit model. The objective function to be minimized during the fitting was defined as: […]
The absolute value of the impedance was used as the normalizing factor. […]

One molecule from patent publication US20210040428A1, “MICROFLUIDIC DEVICE AND METHOD FOR DETERMINING CELL ELECTRICAL BARRIER PROPERTIES” (University of Southampton, priority 2018, published 2021) can be followed below.

For `O=C(O)CN(CCOCCOCCN(CC(=O)O)CC(=O)O)CC(=O)O` [EGTA, ethylene glycol-bis(β-aminoethyl ether)-N,N,N′,N′-tetraacetic acid], the “fitted resistance Rc of the epithelial barrier, change after stimulation compared to the control” value reads like this: (air-liquid interface measurement) “statistically significant (paired t-test) drop”; (submerged measurement) “statistically significant (paired t-test) drop”.
